Legend:
[1] = tested on: MRC5 (Human Fetal Lung Fibroblast) cells; assay: MTT cytotoxicity assay, MRC5 fibroblasts; format: cell-based
Method: (§1) The in vitro cytotoxic effects of H2AcMe, H2BzMe and complexes 1 and 2 against wild type p53 U87 and mutant p53 T98 glioblastoma cells and against MRC-5 fibroblasts cells were tested using cisplatin as a positive control. To determine the IC50 (concentration that inhibits 50% of cell survival) values the cytotoxic effects were quantified using the 3-(4,5-dimethyl-2-thioazolyl)-2,5-diphenyl tetrazolium bromide (MTT) colorimetric assay. All tested compounds were cytotoxic against both glioma cell lines in a dose-dependent way. The IC50 values (see Table 1) were found in the micromolar range. Despite their cytotoxic activity, all compounds were less toxic to fibroblasts cells than cisplatin. CuCl2 evoked only mild cytotoxicity in all cell lineages with IC50 higher than 100 µM.
(§2) U87 (p53 wild-type glioblastoma multiforme) and T98 (p53 mutant glioblastoma multiforme) malignant human tumor cells and MRC5 (Human Fetal Lung Fibroblast) cells were obtained from the American Type Culture Collection (ATCC, Manassas, VA, USA). Cell lines were grown as monolayer in Dulbecco’s Modified Eagle’s Medium (DMEM, Gibco, Rockville, MD, USA), supplemented with 10% fetal bovine serum (Cultilab, Campinas, São Paulo, Brazil) and antibiotics (50 U/mL penicillin/50 […] streptomycin), in a humidified atmosphere air/CO2 (95%/5%) at 37 °C. Cells 80% confluents were used in all experiments. For all experiments, cells were seeded in 96-well plates, at a density of 1000 cells/well. After 24 h incubation cells were treated.
(§3) To determine the IC50 values the cytotoxic effects were quantified using the 3-(4,5-dimethyl-2-thioazolyl)-2,5-diphenyltetrazolium bromide (MTT) colorimetric assay. Briefly, cells were treated with increasing concentrations (10^−12, 10^−11, 10^−10, 10^−9, 10^−8, 10^−7, 10^−6, 10^−5, 10^−4 mol·L^−1) of either cisplatin (positive control) or test compounds (H2AcMe, H2BzMe, 1 and 2). The compounds were previously dissolved in dimethyl sulfoxide (DMSO) and the final concentrations were adjusted in DMEM in such manner that the final DMSO concentration was lower than 0.5%. Following 48 h treatment, MTT reagent was added to each well. Following another 4 h of incubation at 37 °C, DMSO was added to each well to dissolve formazan precipitate and absorbance was measured at 570 nm. Tests using DMSO (0.5% in DMEM) as negative control were carried out in parallel. All tests were performed in quadruplicates with full agreement between the results. Statistical analysis was carried out by the unpaired, one-tailed Student’s t testing using a p value of 0.05. A value of p < 0.05 was considered significant.

[2] = tested on: U87 (p53 wild-type glioblastoma multiforme) cells; assay: MTT cytotoxicity assay, U87 cells; format: cell-based, human; conditions: for IC50: MTT, 48 h treatment
Method: as §1, §2, §3

pUC 19 plasmid DNA = assay: Agarose gel electrophoresis of supercoiled plasmid DNA; parameters: species or system Escherichia coli; conditions: 100 µM, Tris-HCl pH 7.20, 37 °C, 24 h
Method: Studies of interactions between the compounds under study and supercoiled plasmid DNA by agarose gel electrophoresis were carried out. Thus, 136 ng of purified plasmid DNA-pUC 19 from Escherichia coli (Sigma-Aldrich Brasil, São Paulo, Brazil) were incubated with compounds 1, 2 and cisplatin at 100 µM in Tris-HCl buffer (NaCl 50 mM, Tris-HCl 5 mM, pH = 7.20). The mixture was incubated at 37 °C for 24 h. Thereafter, the reactions were quenched by adding 5 µL of the loading buffer solution (50 mM Tris, pH 7.20, 0.01% bromophenol blue, 50% glycerol, and 250 mM EDTA). The samples were analyzed by 1% agarose gel electrophoresis in 0.5 × TBE buffer for 1 h 40 min at […]. The gel was stained after electrophoresis in 0.5× TBE buffer with 2.5 µg·mL^−1 ethidium bromide for 15 min and visualized by UV light.

[3] = tested on: T98 (p53 mutant glioblastoma multiforme) cells; assay: MTT cytotoxicity assay, T98 cells; format: cell-based, human; conditions: for IC50: MTT, 48 h treatment; for selectivity index (SI = IC50MRC5/IC50tumor cell), T98: T98 vs MRC5
Method: as §1, §2, §3

U87 cells = assay: ROS generation, DCFH-DA assay, U87 cells; format: cell-based, human; conditions: 1 × 10^−5 mol/L, 24 h
Text: (§4) To examine the effects of H2AcMe, H2BzMe and their complexes 1 and 2 on the generation of free radicals (reactive oxygen species, ROS), we used the 2',7'-dichlorodihydrofluorescein diacetate (DCFH-DA) assay.
(§5) ROS accumulation was detected using dichlorodihydrofluorescein diacetate (DCFH-DA, Sigma). DCFH-DA is a non-fluorescent compound, that when it is taken up by passive diffusion into the cells, is hydrolyzed by esterases to yield non-permeable DCFH. In the presence of ROS, DCFH is oxidized to the fluorescent DCF. Tumor cells were treated with the compounds for 24 h and were then incubated with DCFH-DA (1 × 10^−5 mol·L^−1) for 30 min at 37 °C. Following incubation, the cells were washed twice with PBS. Thereafter, the cells were observed under the fluorescent microscope Zeiss Axionplan coupled with a digital camera at excitation and emission wavelengths of 488 and 525 nm, respectively. Data were analyzed using ImageJ (ImageJ, National Institute of Health, Bethesda, MD, USA) and expressed as percentages of DCFDA fluorescence of the corresponding control.

MRC5 cells = assay: ROS generation, DCFH-DA assay, MRC5 cells; format: cell-based, human; conditions: 1 × 10^−5 mol/L, 24 h
Text: as §4, §5

[4] = Homo sapiens, MRC5, 48 h treatment

| SMILES | IC50 ([1]; 48 h treatment) [µM] | IC50 [2] [µM] | selectivity index (SI = IC50MRC5/IC50tumor cell), U87 ([2]; U87 vs MRC5) | alteration in the electrophoretic mobility of pUC 19 plasmid DNA (pUC 19 plasmid DNA) | IC50 [3] [µM] | selectivity index (SI = IC50MRC5/IC50tumor cell), T98 [3] | IC50 [1, 4] [µM] | ROS levels in U87 cells compared with T98 cells (U87 cells) | IC50 ([2]; Homo sapiens, U-87 MG) [µM] | IC50 ([3]; Homo sapiens, T98, 48 h) [µM] | ROS levels in MRC5 cells compared with glioma cells (MRC5 cells) |
| --- | --- | --- | --- | --- | --- | --- | --- | --- | --- | --- | --- |
| N.N.[Cl][Pt][Cl] [Cisplatin, [cis(Diaminedichloro)platinum(II)], reference compound] | 5.05 ± 0.71 | 1.76 ± 0.22 | 2.87 | strong modification | 5.31 ± 1.94 | 0.95 |  |  |  |  |  |
| [Cl][Cu][Cl] [CuCl2, reference compound] | > 100 | > 100 |  | no alteration in the electrophoretic mobility | > 100 |  |  |  |  |  |  |
| CC(=O)NN=C(C)c1ccccn1 [H2AcMe, 2-Acetylpyridine acetylhydrazone] |  |  |  |  |  |  | 19.8 ± 4.15 | higher levels of ROS in U87 cells | 67.6 ± 4.08 | 13.8 ± 4.89 | lower levels of ROS in MRC5 cells |
| CC(=O)NN=C(c1ccccc1)c1ccccn1 [H2BzMe, 2-benzoylpyridine acetylhydrazone] |  |  |  |  | 19.7 ± 1.06 | good selectivity index | 62.3 ± 7.76 | equally effective in both cell lineages | 52.3 ± 10 | 19.8 | the same increasing in ROS levels in MRC5 and in both malignant cells |
